Experimental data: ChEMBL document CHEMBL1201862, “PubChem BioAssay data set” (2004)
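In this assay, cells in 96-well plates receive the compound at five concentrations for 48 hours. Endpoints are linearly interpolated between the surrounding concentrations. Abbreviation: GI50, concentration required for 50% inhibition of growth.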 Calls of active or inactive are those of the source. No stated cut-off is given here; in the data, active = GI50 up to about 1.1 µM and inactive = higher.

Columns and labels:
Assay in all cases: DTP human tumour cell line panel, 48 h
M19-MEL = system: M19-MEL
DLD-1 = system: DLD-1
DMS-273 = system: DMS-273
KM-20L2 = system: KM-20L2
XF498 = system: XF498
SNB-78 = system: SNB-78
HOP-18 = system: HOP-18
RXF 631 = system: RXF 631
DMS-114 = system: DMS-114

Measured: GI50

Nc1nc(Cl)cc(NCCCCCCCCNc2cc(Cl)nc(N)n2)n1
inactive: M19-MEL 16 µM | DLD-1 10.2 µM | DMS-273 8.79 µM | KM-20L2 9.48 µM | XF498 1.64 µM | SNB-78 71.6 µM | HOP-18 27.1 µM

CCCCOC(=O)CNC(=O)OC/C=C/C#CC#C/C=C/COC(=O)NCC(=O)OCCCC
inactive: M19-MEL > 10 µM | DLD-1 > 10 µM | RXF 631 > 10 µM | KM-20L2 > 10 µM | XF498 > 10 µM | DMS-114 > 10 µM | SNB-78 > 10 µM | HOP-18 > 10 µM

CC(CCCOC(c1ccccc1)(c1ccccc1)c1ccccc1)OC(=O)Nc1ccccc1 (centres undefined)
inactive: M19-MEL 14.6 µM | DLD-1 13.7 µM | DMS-273 15.5 µM | KM-20L2 5.12 µM | XF498 14.9 µM | DMS-114 12.1 µM | SNB-78 16.4 µM

CCNC(=O)COc1ccc(Cl)c(C)c1
inactive: M19-MEL > 100 µM | DLD-1 > 100 µM | DMS-273 > 100 µM | KM-20L2 > 100 µM | DMS-114 > 100 µM | SNB-78 > 100 µM | HOP-18 > 100 µM

CCCCCCCCOCC(O)COC (centres undefined)
inactive: M19-MEL > 100 µM | DLD-1 > 100 µM | DMS-273 > 100 µM | DMS-114 > 100 µM | HOP-18 > 100 µM

COc1cc2cnc3c4cc(OC(C)C)c(OC)cc4ccc3c2cc1OC
inactive: M19-MEL > 100 µM | DLD-1 > 100 µM | KM-20L2 > 100 µM | XF498 > 100 µM | DMS-114 > 100 µM | HOP-18 > 100 µM

Cn1ncc2ccc3[nH]c4ccccc4c(=O)c3c21
inactive: M19-MEL 23.2 µM | DLD-1 27.5 µM | RXF 631 21.8 µM | DMS-273 28.6 µM | KM-20L2 33.8 µM | DMS-114 35.8 µM | SNB-78 27.7 µM | HOP-18 58.5 µM

COc1cc(C(C)c2cc3c(cc2OCCOCCOc2cc4c(cc2C(C)c2cc(OC)c(OC)c(OC)c2)OCO4)OCO3)cc(OC)c1OC (centres undefined)
inactive: M19-MEL > 10 µM | DLD-1 > 10 µM | RXF 631 > 10 µM | DMS-273 > 10 µM | KM-20L2 > 10 µM | XF498 > 10 µM | DMS-114 > 10 µM | SNB-78 > 10 µM | HOP-18 > 10 µM

O=C(/C(=C/c1ccc(Cl)cc1)c1ccccc1)c1ccccc1
inactive: DLD-1 15.2 µM | XF498 18.5 µM | DMS-114 16.7 µM | SNB-78 19.9 µM | HOP-18 26.5 µM

CC1(c2cccc(N)c2)C2C(=O)NC(=O)C1C(=O)NC2=O (centres undefined)
inactive: M19-MEL 37.2 µM | DLD-1 34.7 µM | RXF 631 > 100 µM | DMS-273 25.5 µM | KM-20L2 27.6 µM | XF498 21.8 µM | DMS-114 27.5 µM | SNB-78 51.2 µM

O=C(Cc1ccccc1)N/N=C(/c1nc2ccc([N+](=O)[O-])cc2nc1O)C(O)c1ccccc1Cl (centres undefined)
inactive: M19-MEL > 100 µM | DLD-1 > 100 µM | XF498 > 100 µM | SNB-78 > 100 µM | HOP-18 > 100 µM

N#CC1CC2(C1)OCCS2 (centres undefined)
inactive: DLD-1 > 100 µM | DMS-273 > 100 µM | KM-20L2 > 100 µM | SNB-78 > 100 µM

C/C(CN1C(=O)c2ccccc2C1=O)=N\NS(=O)(=O)c1cccc([N+](=O)[O-])c1
inactive: M19-MEL > 100 µM | DLD-1 > 100 µM | RXF 631 > 100 µM | DMS-273 > 100 µM | KM-20L2 > 100 µM | XF498 > 100 µM | SNB-78 > 100 µM | HOP-18 > 100 µM

CCC1(C(=O)OC)CCc2c(OC)ccc(OC)c2C1=O (centres undefined)
inactive: M19-MEL > 100 µM | DLD-1 > 100 µM | RXF 631 > 100 µM | DMS-273 > 100 µM | KM-20L2 > 100 µM | XF498 > 100 µM | DMS-114 > 100 µM | SNB-78 > 100 µM | HOP-18 > 100 µM

Cc1nc(Nc2ccc([N+](=O)[O-])cc2)sc1C(/C=C/c1ccc(N(C)C)cc1)=N/NC(=O)c1ccccc1
inactive: M19-MEL 61.1 µM | DLD-1 55 µM | RXF 631 32.6 µM | KM-20L2 36.3 µM | XF498 > 100 µM | DMS-114 29 µM | SNB-78 41.6 µM | HOP-18 72.8 µM

Cc1c(Cl)cccc1N1C(=O)C(Cl)=C(Cl)C1=O
inactive: M19-MEL > 100 µM | DLD-1 > 66.8 µM | DMS-273 > 100 µM | KM-20L2 > 100 µM | XF498 66.7 µM | DMS-114 > 100 µM | SNB-78 > 100 µM | HOP-18 > 100 µM

COc1ccc(/C(C#N)=C(/N)SCc2ccccc2Cl)cc1
inactive: M19-MEL 16.6 µM | DLD-1 14.1 µM | KM-20L2 17.8 µM | XF498 14.8 µM | DMS-114 17.7 µM | SNB-78 27 µM | HOP-18 19.5 µM

CCOC(=O)c1cn(Cc2ccccc2)c(=O)n1Cc1ccccc1
inactive: M19-MEL > 100 µM | DLD-1 > 100 µM | RXF 631 > 100 µM | DMS-273 > 100 µM | KM-20L2 > 100 µM | XF498 25.8 µM | DMS-114 94 µM | SNB-78 > 100 µM | HOP-18 > 100 µM

CCC12CC[C@H](C#N)N3CCc4c(n(c5ccccc45)C(=O)C1)C32 (some centres undefined)
inactive: M19-MEL 18.7 µM | DLD-1 18.3 µM | RXF 631 16.4 µM | DMS-273 5.14 µM | KM-20L2 16.3 µM | XF498 20 µM | SNB-78 19.5 µM
active: HOP-18 < 0.01 µM

CC(C)(O)[C@@H]1CC[C@@]2(C)CCCC(O)C2(O)C1 (some centres undefined)
inactive: M19-MEL > 100 µM | DLD-1 > 100 µM | RXF 631 > 100 µM | DMS-273 > 100 µM | KM-20L2 > 100 µM | XF498 > 100 µM | DMS-114 > 100 µM | HOP-18 > 100 µM

CCOC(=O)C[C@@]12CCCNC1(C)CCc1ccccc12 (some centres undefined)
inactive: M19-MEL > 100 µM | DLD-1 > 100 µM | DMS-273 > 100 µM | KM-20L2 > 100 µM | XF498 > 100 µM | DMS-114 > 100 µM | HOP-18 63.2 µM

COc1cc(C=O)c(-c2cc3c(cc2C=O)OCO3)c(OC)c1OC
inactive: M19-MEL 89.1 µM | DLD-1 88.7 µM | RXF 631 115 µM | DMS-273 85.5 µM | KM-20L2 69.5 µM | DMS-114 84.5 µM | HOP-18 > 290 µM

C[C@@H]1C[C@@H]([C@H](O)CC2CC(=O)NC(=O)C2)C(=O)[C@@H](C)C1 [CYCLOHEXIMIDE]
active: M19-MEL 0.0607 µM | DLD-1 0.0405 µM | RXF 631 0.0248 µM | DMS-273 0.0557 µM | KM-20L2 0.0705 µM | XF498 0.0348 µM | DMS-114 0.102 µM | SNB-78 0.0875 µM | HOP-18 0.249 µM

COc1cc(C)c(CC/C(C)=C/Cc2cc(O)ccc2O)c(C)c1C [PANICEIN A HYDROQUINONE]
inactive: M19-MEL > 25 µM | DLD-1 > 25 µM | DMS-273 > 25 µM | KM-20L2 > 25 µM | XF498 > 25 µM | DMS-114 > 25 µM | HOP-18 > 25 µM
